Source: patent publication US20090068299A1

Assays:
[1] = biological target: T1, ERβ (Homo sapiens, UniProt Q92731); assay: Repression of TNF-α activation of TNF-RE tkLuc in U2OS cells with ERβ; type: cell-based; design: expressed in transfected cells
[2] = biological target: T1, ERβ; settings: in the presence of ERβ
[3] = tested on: TNF-RE tkLuc; assay: Effect of antiestrogens on TNF-RE tkLuc; type: cell-based, human; settings: for effect on the repression induced by E2: TNF-RE tkLuc; for activation of TNF-RE tkLuc: antiestrogens, in contrast to E2
[4] = biological target: T1, ERβ; assay: ERE-tk-Luc luciferase activation in U2OS cells with ERβ; type: cell-based; design: expressed in transfected cells; host or cells: U2OS (human osteosarcoma); settings: competition
[5] = tested on: estrogen receptor-positive breast cancer; settings: five years of therapy; cited from earlier work
[6] = tested on: primary invasive breast cancer; settings: women at high risk for breast cancer; cited from earlier work

T1 sequence (Q92731 whole entry): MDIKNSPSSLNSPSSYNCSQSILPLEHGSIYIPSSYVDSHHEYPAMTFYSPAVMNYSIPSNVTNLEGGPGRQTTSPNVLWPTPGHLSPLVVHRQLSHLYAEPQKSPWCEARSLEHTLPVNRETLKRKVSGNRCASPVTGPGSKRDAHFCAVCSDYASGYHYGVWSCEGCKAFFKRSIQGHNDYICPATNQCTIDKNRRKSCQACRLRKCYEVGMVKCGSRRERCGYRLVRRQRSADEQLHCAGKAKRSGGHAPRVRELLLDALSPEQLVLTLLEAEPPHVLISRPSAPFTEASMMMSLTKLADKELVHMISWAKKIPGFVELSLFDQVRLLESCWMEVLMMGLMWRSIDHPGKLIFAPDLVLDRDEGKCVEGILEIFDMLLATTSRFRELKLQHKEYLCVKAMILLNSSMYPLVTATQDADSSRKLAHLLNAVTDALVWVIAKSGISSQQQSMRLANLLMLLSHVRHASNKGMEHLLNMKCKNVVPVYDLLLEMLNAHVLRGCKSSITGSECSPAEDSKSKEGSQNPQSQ

Row | repression of TNF-α activation of TNF-RE [1] [%] | repression of TNF-α activation of TNF-RE tkLuc [2] | stimulatory effect of Pueraria lobata on the ERE with ERβ in the presence of the SERM antagonist (FIG. 6) [4] | SMILES | effect on the repression induced by E2 [3] | activation of TNF-RE tkLuc [3] [fold] | reduction of mortality from breast cancer [5] [%] | reduction of the risk of recurrences [5] [%] | reduction of the risk of primary invasive breast cancer [6] [%]
1 | 100 | 60-80% |  | C[C@]12CC[C@@H]3c4ccc(O)cc4CC[C@H]3[C@@H]1CC[C@@H]2O [E2, estradiol] |  |  |  |  | 
2 |  |  |  | C[C@]12CC[C@@H]3c4ccc(O)cc4C[C@@H](CCCCCCCCC[S+]([O-])CCCC(F)(F)C(F)(F)F)[C@H]3[C@@H]1CC[C@@H]2O (stereo partly drawn) [ICI 182, 780] | abolished the repression induced by E2 | 2 |  |  | 
3 |  |  | inhibited | O=C(c1ccc(OCCN2CCCCC2)cc1)c1c(-c2ccc(O)cc2)sc2cc(O)ccc12 [raloxifene] | abolished the repression induced by E2 | 2 |  |  | 
4 |  |  |  | CC/C(=C(\c1ccccc1)c1ccc(OCCN(C)C)cc1)c1ccccc1 [tamoxifen] | abolished the repression induced by E2 | 2 | 22 | 42 | 49
